Structures can show the parent of a compound that is named as a salt.
Each molecule was assayed against T1, α7 nAChR (Rattus norvegicus, UniProt Q05941) (assay: [3H]-MLA competition binding assay in rat brain membranes). Details: inhibition of [3H]-MLA binding (3.0 to 4.0 nM), rat brain homogenate (whole brain minus cerebellum), 1 hr at 25° C, Cheng-Prusoff.
T1 construct: the brains (whole brain minus cerebellum) are dissected quickly, weighed and homogenized; from tissue; host or cells: rat brain (whole brain minus cerebellum) membranes
T1 sequence (Q05941 23-502): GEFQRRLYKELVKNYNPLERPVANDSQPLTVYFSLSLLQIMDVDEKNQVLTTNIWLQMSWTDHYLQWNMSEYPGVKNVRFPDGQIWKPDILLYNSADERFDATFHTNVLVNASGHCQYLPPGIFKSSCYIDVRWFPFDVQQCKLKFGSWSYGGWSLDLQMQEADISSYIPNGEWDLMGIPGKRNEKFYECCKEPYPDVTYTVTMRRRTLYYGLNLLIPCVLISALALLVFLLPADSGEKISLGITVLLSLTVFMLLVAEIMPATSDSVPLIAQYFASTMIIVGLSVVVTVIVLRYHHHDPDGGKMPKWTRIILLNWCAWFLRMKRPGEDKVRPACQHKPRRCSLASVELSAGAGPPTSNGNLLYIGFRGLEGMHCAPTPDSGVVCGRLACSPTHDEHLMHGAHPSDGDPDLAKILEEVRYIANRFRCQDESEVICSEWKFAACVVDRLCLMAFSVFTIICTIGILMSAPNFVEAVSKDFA
Description: Materials and Methods for Identifying Binding Constants
Membrane Preparation. Male Sprague-Dawley rats (300-350 g) are sacrificed by decapitation and the brains (whole brain minus cerebellum) are dissected quickly, weighed and homogenized in 9 volumes/g wet weight of ice-cold 0.32M sucrose using a rotating pestle on setting 50 (10 up and down strokes). The homogenate is centrifuged at 1,000×g for 10 minutes at 4° C. The supernatant is collected and centrifuged at 20,000×g for 20 minutes at 4° C. The resulting pellet is resuspended to a protein concentration of 1-8 mg/mL. Aliquots of 5 mL homogenate are frozen at −80° C. until needed for the assay. On the day of the assay, aliquots are thawed at room temperature and diluted with Kreb's −20 mM Hepes buffer pH 7.0 (at room temperature) containing 4.16 mM NaHCO3, 0.44 mM KH2PO4, 127 mM NaCl, 5.36 mM KCl, 1.26 mM CaCl2, and 0.98 mM MgCl2, so that 25-150 μg protein are added per test tube. Proteins are determined by the Bradford method (Bradford, M. M., Anal. Biochem., 72, 248-254, 1976) using bovine serum albumin as the standard.
Binding Assay. For saturation studies, 0.4 mL homogenate are added to test tubes containing buffer and various concentrations of radioligand, and are incubated in a final volume of 0.5 mL for 1 hr at 25° C. Nonspecific binding was determined in tissues incubated in parallel in the presence of 0.05 ml MLA for a final concentration of 1 μM MLA, added before the radioligand. In competition studies, drugs are added in increasing concentrations to the test tubes before addition of 0.05 ml [^3H]-MLA for a final concentration of 3.0 to 4.0 nM [^3H]-MLA. The incubations are terminated by rapid vacuum filtration through Whatman GF/B glass filter paper mounted on a 48 well Brandel cell harvester. Filters are pre-soaked in 50 mM Tris HCl pH 7.0-0.05% polyethylenimine. The filters are rapidly washed two times with 5 mL aliquots of cold 0.9% saline and then counted for radioactivity by liquid scintillation spectrometry.
Data Analysis. In competition binding studies, the inhibition constant (Ki) was calculated from the concentration dependent inhibition of [^3H]-MLA binding obtained from non-linear regression fitting program according to the Cheng-Prusoff equation (Cheng, Y. C. and Prussoff, W. H., Biochem. Pharmacol., 22, pp. 3099-3108, 1973). Hill coefficients were obtained using non-linear regression (GraphPad Prism sigmoidal dose-response with variable slope).
Molecule `Cc1nc2cc(C(=O)N[C@H]3CN4CCC3CC4)ccc2o1` [Example 4, N-((3R)1-azabicyclo[2.2.2]oct-3-yl)-2-methyl-1,3-benzoxazole-5-carboxamide.fumarate] has a Ki of 305 nM.
Work on `O=C(N[C@H]1CN2CCC1CC2)c1ccc2ocnc2c1` [Example 3, N-((3R)1-azabicyclo[2.2.2]oct-3-yl)-1,3-benzoxazole-5-carboxamide.fumarate] yielded a Ki of 32 nM.
`C[C@H]1[C@H](NC(=O)c2nc3ccccc3s2)C2CCN1CC2` [Example 1005, N-[(2S,3R)-2-methyl-1-azabicyclo[2.2.2]oct-3-yl]-1,3-benzothiazole-2-carboxamide hydrochloride] gave a Ki of 73 nM.
`O=C(N[C@H]1CN2CCC1CC2)c1ccc2c(c1)CCC2` [Example 6, N-((3R)1-azabicyclo[2.2.2]oct-3-yl)indane-5-carboxamide.fumarate] was tested, and the Ki was 110 nM.
In the case of `C[C@H]1[C@H](NC(=O)c2ccc3ncsc3c2)C2CCN1CC2` [Example 11, N-[(2S,3R)-2-methyl-1-azabicyclo[2.2.2]oct-3-yl]-1,3-benzothiazole-6-carboxamide hydrochloride], the Ki is reported as 92 nM.
`O=C(N[C@H]1CN2CCC1CC2)c1ccc2ncsc2c1` [Example 5, N-((3R)1-azabicyclo[2.2.2]oct-3-yl)-1,3-benzothiazole-6-carboxamide.fumarate] gave a Ki of 30 nM.
`O=C(N[C@H]1CN2CCC1CC2)c1ccc2c(c1)OCO2` [Example 7, N-((3R)-1-azabicyclo[2.2.2]oct-3-yl)-1,3-benzodioxole-5-carboxamide, 4-methylbenzenesulfonate] was tested, and the Ki was 24 nM.

Source: US6828330B2, “Quinuclidine-substituted hetero-bicyclic aromatic compounds for the treatment of disease” (Pharmacia & Upjohn Company, priority 2001, dated 2004)
